Experiments:
Type in all cases: cell-based, mice
[1] = test system: macrophage RAW 267.4; assay: MTT test of toxicity to cells (cell survival rate)
Procedure: The invention chooses the macrophage RAW 267.4 of mice for the discussion about the production of NO and prostaglandin-E2 (PGE2). For the culture of RAW 267.4 cell, firstly inoculate RAW 267.4 macrophages growing in the culture plate (75 cm^2) in 96-well plate in the density of 2×10^5 cells/well and then culture them in the incubator (37° C., 5% CO2). DMEM culture medium is selected according to the recommendation of ATCC (American TypeCulture Collection), with 10% fetal bovine serum (FBS), penicillin (100 units/ml) and streptomycin ([…]) added. In addition, the familiar MTT is utilized to test the toxicity of Antrocamphin A to cells. Said MTT is a method for detecting cell survival rate or cell proliferation in biology on principle that succinate dehydrogenase in the mitochondria of live cell metabolizes tetrazolium of MTT to be blue products. After DMSO is added to resolve the blue metabolized products accumulated in cells, the amount of blue metabolized products is measured by spectrometer to indirectly calculate the number of live cells.

[2] = test system: macrophage RAW 267.4; assay: LPS-elicited prostaglandin-E2 (PGE2) production in macrophage RAW 267.4, ELISA; parameters: unit not given here; details: RAW 267.4, aspirin 3 hours, then LPS 1 g/ml 16 hours
Procedure: (§1) The invention chooses the macrophage RAW 267.4 of mice for the discussion about the production of NO and prostaglandin-E2 (PGE2). For the culture of RAW 267.4 cell, firstly inoculate RAW 267.4 macrophages growing in the culture plate (75 cm^2) in 96-well plate in the density of 2×10^5 cells/well and then culture them in the incubator (37° C., 5% CO2). DMEM culture medium is selected according to the recommendation of ATCC (American TypeCulture Collection), with 10% fetal bovine serum (FBS), penicillin (100 units/ml) and streptomycin ([…]) added.
In the experiment for measuring the production of prostaglandin-E2 (PGE2), firstly RAW 267.4 cells are cultured as Experiment I states and […] aspirin is added in the culture medium for 3 hours so that the endogenous COX-1 is deactivated. Then, they are handled for 1 hour in antrocamphin A (1, 5, 10, 20 g/ml) or curcumin (10 g/ml) and processed for 16 hours with LPS (1 g/ml). Finally, supernatant liquid in the cell culture is measured by ELISA kit (Cayman Chemicals) so as to get the production of prostaglandin-E2 (PGE2) in endogenous arachidonic acid.

[3] = test system: mRNA of iNOS; assay: iNOS mRNA expression in LPS-treated RAW 267.4, RT-PCR; details: RAW 267.4, LPS; dose-dependent, higher dose; FIG. 4A
Procedure: (§2) Trizol reagent (Invitrogen Life Technologies, Carlsbad, Calif., USA) is used to extract the total RNA of macrophages. mRNA of iNOS, COX-2 and G3PDH is reversely transcribed to be cDNA by the RT-PCR, and then the expression of iNOS, COX-2 and G3PDH are quantified with the real time-PCR (Applied Biosystems).
(§3) Said real time-PCR detects the PCR products by DNA binding SYBR Green. The thermal cycles are: 95° C., 5 min, 1 min for 40 cycles at 95° C., 45 s for 55° C., and 30 s for 72° C. The sequence of primers is: iNOS forward 5′-TCC TAC ACC ACA CCA AAC-3′; iNOS reverse 5′-CTC CAA TCT CTG CCT ATC C-3′; COX-2 forward 5′-CCT CTG CGA TGC TCT TCC-3′, COX-2 reverse 5′-TCACACTTATACTGGTCAAATCC-3′, G3PDH forward 5′-TCA ACG GCA CAG TCA AGG-3′; G3PDH reverse 5′-ACT CCA CGA CAT ACT CAG C-3′. G3PDH are housekeeping genes which are genes with stable and large number of expression in cells and are used to standardize the expression of iNOS and COX-2 in the experiment.
(§4) In addition, total RNA and total protein are extracted from each group of macrophages. According to the paragraphs of RT-PCR and western blot analysis in Experiment I, the expression of iNOS and COX-2 are evaluated from the perspectives of mRNA and protein.

[4] = test system: COX-2; assay: COX-2 protein expression in LPS-treated RAW 267.4, western blot; details: RAW 267.4, LPS; dose-dependent, especially at 20 µg/ml; FIG. 5B
Procedure: (§5) After getting the total protein of macrophages, add the equal amount of protein in 5˜7% SDS-PAGE, resolve for 90 m at 300 mA, blotting (100V, 1 hour) proteins resolved in different sizes to polyvinylidene difluoride (PVDF, Immobilon, Millipore, Bedford, Mass.), and then put PVDF in the blocking buffer (10% w/v skim milk powder in TBST) for 1 hour.
(§6) Then, dip PVDF in the anti-iNOS solution (1:1000, Cayman Chemicals) and clean twice with 0.1% TBST buffer (TBS buffer containing 0.1% Tween 20) to clear the non-specific bonded antibody and antigen.
(§7) Next, dip PVDF in the anti-rabbit secondary antibodies solution with horseradish peroxidase, detect the fluorescence density of each group by enhanced chemiluminescene regents (ECL, Pierce), and take the expression of β-actin as the reference group.
as §4

[5] = test system: mRNA of COX-2; assay: COX-2 mRNA expression in LPS-treated RAW 267.4, RT-PCR; details: RAW 267.4, LPS; dose-dependent, higher dose; FIG. 4B
Procedure: as §2, §3, §4

[6] = test system: macrophage RAW 267.4; assay: LPS-elicited NO production in macrophage RAW 267.4, nitrite by Griess reaction; parameters: unit not given here; details: then LPS 1 g/ml 24 hours
Procedure: as §1
Firstly, RAW 267.4 is cultured as detailed in Experiment I and divided into three groups: group 1 (ACE), group 2 (ACE-EA) and group 3 (ACE-water). For each group, add said ACE, ACE-EA and ACE-water of different concentrations (1, 10, 25, 50 g/ml) in the culture medium, add LPS to elicit RAW267.4 producing NO, and measure the content of nitrite after 24 hours by Griess reaction to indirectly measure the amount of NO.
NO activity inhibition tests are conducted on RAW 267.4 macrophages (see reference in Cell culture, Experiment I) to 17 fractions respectively. Firstly, divide RAW 267.4 cells into 17 groups, add 17 fractions (50 g/ml) in the culture medium, and then add LPS (1 g/ml) to elicit the production of NO. 24 hours later, Griess reaction is conducted to measure the content of nitrites and thus indirectly measuring the production of NO and calculating the inhibition rate of NO.
In the experiment of production of NO, firstly RAW 267.4 cells are cultured as Experiment I states, handled for 1 hour in antrocamphin A (1, 5, 10, 20 g/ml) or curcumin (10 g/ml), and then processed for 24 hours with LPS (1 g/ml). Then, Griess reaction is conducted to measure the content of nitrites and thus indirectly obtaining the production of NO.

[7] = test system: iNOS; assay: iNOS protein expression in LPS-treated RAW 267.4, western blot; details: RAW 267.4, LPS; dose-dependent, especially at […]; FIG. 5A
Procedure: as §5, §6, §7, §4

| Compound | Cell survival rate (%) ([1]; mouse, 10 g/ml) | Production of prostaglandin-E2 (PGE2) ([2]; 10 g/ml for 1 hour) | expression of mRNA of iNOS [3] | expression of COX-2 (protein) [4] | expression of mRNA of COX-2 [5] | Production of NO (M) ([6]; RAW 267.4, 1 g/ml for 1 hour) | Production of NO (M) ([6]; RAW 267.4, 5 g/ml for 1 hour) | Production of NO (M) ([6]; RAW 267.4, 10 g/ml for 1 hour) | Production of NO (M) ([6]; RAW 267.4, 20 g/ml for 1 hour) | Cell survival rate (%) ([1]; MTT, RAW 267.4, 1 g/ml, with LPS) | Cell survival rate (%) ([1]; MTT, RAW 267.4, 5 g/ml, with LPS) | Cell survival rate (%) ([1]; MTT, RAW 267.4, 10 g/ml, with LPS) | Cell survival rate (%) ([1]; MTT, RAW 267.4, 20 g/ml, with LPS) | Production of prostaglandin-E2 (PGE2) ([2]; 1 g/ml for 1 hour) | Production of prostaglandin-E2 (PGE2) ([2]; 5 g/ml for 1 hour) | Production of prostaglandin-E2 (PGE2) ([2]; 20 g/ml for 1 hour) | expression of iNOS (protein) [7] |
| --- | --- | --- | --- | --- | --- | --- | --- | --- | --- | --- | --- | --- | --- | --- | --- | --- | --- |
| COc1cc(/C=C/C(=O)CC(=O)/C=C/c2ccc(O)c(OC)c2)ccc1O [curcumin, reference compound] | 76 ± 4.6% | 6.82 ± 5.2 | – | – | – | – | – | – | – | – | – | – | – | – | – | – | – |
| C=C(C)C#Cc1c(OC)cc(OC)c(OC)c1C [antrocamphin A, Antrocamphin A] | – | 237.96 ± 83.85 | effectively reduce the amount of mRNA of iNOS and COX-2 | effectively reduce the expression of iNOS and COX-2 | effectively reduce the amount of mRNA of iNOS and COX-2 | 18 ± 0.36 | 14.68 ± 0.54 | 11.14 ± 0.18 | 7.27 ± 0.18 | 93 ± 4.13% | 92 ± 5.49% | 89 ± 3.22% | 79 ± 3.54% | 411.5 ± 20.92 | 360.9 ± 23.95 | 24.62 ± 15.36 | effectively reduce the expression of iNOS and COX-2 |
